# How the values were obtained:
# [1] = tested on: serum uric acid; details: previous results, gout patients; cited from earlier work
# [2] = tested on: serum uric acid; assay: Phase 2 clinical trial (NCT03934099): serum uric acid concentration in gout patients; type: in vivo, human; details: for patients with serum uric acid concentration <4 mg/dL / patients with serum uric acid concentration <5 mg/dL / patients with serum uric acid concentration <6 mg/dL: febuxostat group 40 mg oral
# Description: A phase 2 clinical trial was conducted to analyze the dosage, TEAEs, and the like when the compound of Formula 1 (1-(3-cyano-1-isopropyl-indol-5-yl)pyrazol-4-carboxylic acid; compound of Example 1) is administered to a gout patient group.
# • 1. Written informed consent (signed and dated) provided voluntarily prior to the start of the study. • 2. Male or female aged from 18 to 75 • 3. History or experience of hyperuricemia and gout in accordance with the criteria of the American College of Rheumatology. • 4. Self-reported history of 2 or more gout flare within 12 months prior to screening visit (Visit 1). • 5. Serum uric acid (sUA) levels at Visit 1 of 6.0 mg/dL or more in subjects who were receiving urate lower therapy (ULT) with allopurinol, febuxostat, probenecid, or lesinurad; and sUA levels at Visit 1 of 8.0 mg/dL or more and 12.0 mg/dL or less in subjects who had no history of receiving the ULT or were not receiving the ULT at visit 1. • 6. sUA levels of 8.0 mg/dL or more and 12.0 mg/dL or less at Visit 3. • 7. Body mass index of 42 kg/m^2 or less at screening visit (Visit 1). • 8. Estimated glomerular filtration rate (eGFR) of 60 mL/min/1.73 m^2 or more at screening visit (Visit 1). • 9. Subjects of childbearing potential with a negative pregnancy test result at screening visit (Visit 1). Subjects (female subjects of childbearing potential and male subjects with partners of childbearing potential) consented to use adequate methods of contraception to avoid pregnancy during the study period. • 10. Able to understand the study procedure and relevant risk, and willing to comply with the visit/protocol schedule.
# • 1. Presence of secondary hyperuricemia caused by myeloproliferative disorder, organ transplantation, or the like. • 2. Experience of any active acute gout flare within 3 weeks prior to screening visit (Visit 1). • 3. Aspartate aminotransferase or alanine aminotransferase level exceeds 2 times upper limit of normal (ULN) at screening visit (Visit 1). • 4. Creatine kinase level exceeds 2.5 times ULN at screening visit (Visit 1). • 5. Presence of previous hypersensitivity to colchicine. • 6. Patients who have ever prescribed pegloticase within 3 months prior to screening visit (Visit 1). • 7. If a stable dose of drugs (losartan, fibrate, thiazide diuretics, loop diuretics, and acetylsalicylic acid) known to affect sUA levels has not been administered during the past 6 weeks prior to screening visit (Visit 1), acetylsalicylic acid is not allowed to use 325 mg/day or more. • 8. Patients who have ever received systemic corticosteroids for 10 or more consecutive days within 1 month prior to screening visit (Visit 1). • 9. Presence of need or potential availability of systemic immunosuppressive drugs or immunomodulatory therapies (e.g., azathioprine, 6-mercaptopurine, and cyclosporine) • 10. Patients who have received high or moderate doses of cytochrome P450 3A4 inhibitors or P-glycoprotein inhibitors within 14 days prior to screening visit (Visit 1). • 11. History of xanthinuria. • 12. History of rheumatoid arthritis. • 13. Presence of active peptic ulcer disease requiring treatment. • 14. Presence of unstable angina, New York Heart Association class III or IV heart failure, myocardial infarction, stroke, deep vein thrombosis, percutaneous coronary intervention (with or without stent), or coronary artery bypass graft within the past 12 months prior to screening visit (Visit 1); current administration of anticoagulants; or the presence of clinically significant electrocardiogram abnormalities in the investigator's opinion at screening visit (Visit 1). • 15. Presence of uncontrolled hypertension (systolic blood pressure>160 mmHg or diastolic blood pressure>95 mmHg) at screening visit (Visit 1). • 16. History of myositis/myopathy, rhabdomyolysis, Stevens-Johnson syndrome, or toxic epidermal necrolysis. • 17. […]
# [3] = febuxostat 40 mg, mild renal function impairment, 12 weeks
# [4] = febuxostat 40 mg, normal renal function, 12 weeks
# [5] = febuxostat 40 mg, one patient in moderate renal function impairment group, 12 weeks
SMILES,patients in the receiving group with serum uric acid concentration of less than 6 mg/dL [1],"patients adjusted to serum uric acid <5.0 mg/dL [2, 3]","patients adjusted to serum uric acid <6.0 mg/dL [2, 3]","patients adjusted to serum uric acid <5.0 mg/dL [2, 4]","patients adjusted to serum uric acid <6.0 mg/dL [2, 4]","adjustment of serum uric acid to <5.0 mg/dL [2, 5]","adjustment of serum uric acid to <6.0 mg/dL [2, 5]",patients with serum uric acid concentration <4 mg/dL ([2]; 12 weeks),patients with serum uric acid concentration <5 mg/dL ([2]; 12 weeks),patients with serum uric acid concentration <6 mg/dL ([2]; 12 weeks),"patients with serum uric acid concentration <4 mg/dL ([2]; 12 weeks, listed as febuxostat)","patients with serum uric acid concentration <5 mg/dL ([2]; 12 weeks, listed as febuxostat)","patients with serum uric acid concentration <6 mg/dL ([2]; 12 weeks, listed as febuxostat)","degree of reduction in serum uric acid ([2]; febuxostat group 40 mg, FIG. 3)"
Oc1ncnc2[nH]ncc12 [allopurinol],about 40%,–,–,–,–,–,–,–,–,–,–,–,–,–
"Cc1nc(-c2ccc(OCC(C)C)c(C#N)c2)sc1C(=O)O [Febuxostat, febuxostat, reference compound]",–,33%,67%,20%,60%,not adjusted to less than 5.0 mg/dL,not adjusted to less than 6.0 mg/dl,0% (0/13 people),23% (3/13 people),54% (7/13 people),0%,23%,54%,41.4%

# From patent US20240415814A1, “PHARMACEUTICAL COMPOSITION COMPRISING 1-(3-CYANO-1-ISOPROPYL-INDOL-5-YL)PYRAZOLE-4-CARBOXYLIC ACID” (LG CHEM, LTD., priority 2021, published 2024)
